# According to publication PMC2362044, “A potent nonporphyrin class of photodynamic therapeutic agent: cellular localisation, cytotoxic potential and influence of hypoxia” (British Journal of Cancer, 2005):
# Where two headings read alike, the source gives them in different places.
# Columns and labels:
# A2780 cells = experiment: Colorimetric survival (MTT) assay after photo-irradiation, normoxia; type: cell-based; details: Homo sapiens, A2780, 3 h incubation
# Experimental: (§1) All cell lines unless otherwise stated were obtained from the American Type Culture Collection. HeLa, MRC5, HT-1080, MDA-MB-231, MCF-7 and T47-D cells were cultured in minimum essential medium (MEM) supplemented with 10% (v v^−1) foetal calf serum (FCS), 1% (v v^−1) non-essential amino acids, 50 U ml^−1 penicillin, 50 μg ml^−1 streptomycin, 20 mM HEPES and 1% (v v^−1) L-glutamine (Gibco-BRL). SW480, SW620 (obtained from Professor D Croke, Royal College of Surgeons, Dublin), A2780 and A2780cp70 cells (Obtained from Professor R Brown, Cancer Research UK, Beatson Laboratories, Glasgow) were cultured in RPMI-1640 medium plus the above-mentioned supplements. All cells were maintained in 5% CO2 (v v^−1) and 21% O2 (v v^−1) at 37°C unless otherwise stated.
# (§2) Cells were seeded in 96-well flat-bottomed microtitre plates (5000 cells well^−1) and incubated at 37°C in a 5% CO2 incubator for 24 h. Cells were then incubated with varying concentrations of photosensitiser (1 × 10^−9 to 1 × 10^−4 M) in the dark for 3 h at 37°C. The ADPM compound-laden medium was then removed, the cells were washed with PBS and fresh culture medium was added to each well. This was followed by light irradiation with a broad-spectrum red light source (600–750 nm) via a Waldmann PDT1200L light delivery system. For this study, fluences (light exposures) of either 8 or 16 J cm^−2, at a dose rate of 80 mW cm^−2, were used. Following irradiation, the cells were incubated for a further 48 h before being assessed for cell viability by a standard MTT assay (Sigma). The subsequent colour change produced by viable cells was quantified using a plate reader (VICTOR^2 1420 multilabel HTS counter, Wallac). […] The dark toxicity of each compound was also assessed.
# (§3) Prism ([…]) was used to graph the data obtained from the MTT assays and the uptake/clearance experiments. This program allows nonlinear regression analysis and the generation of sigmoidal dose–response curves. Prism also automatically calculates EC50 values. Statistical analysis was performed using the ANOVA test (Prism). Significant differences were detected using the Bonferroni multiple comparison test. P-values <0.05 were considered statistically significant.
# A2780cp70 cells = experiment: as above; type: cell-based; details: Homo sapiens, A2780/CP70, A2780cp70, 3 h incubation
# Experimental: as §1, §2, §3
# HT-1080 cells = experiment: as above; type: cell-based; details: Homo sapiens, HT-1080, 3 h incubation
# Experimental: as §1, §2, §3
# HeLa cells [1] = experiment: as above; type: cell-based; details: Homo sapiens, normoxia 21% oxygen, 3 h incubation
# Experimental: as §1, §2, §3
# MCF-7 cells = experiment: as above; type: cell-based; details: Homo sapiens, MCF7, MCF-7, 3 h incubation
# Experimental: as §1, §2, §3
# MDA-MB-231 cells = experiment: as above; type: cell-based; details: Homo sapiens, MDA-MB-231, 3 h incubation
# Experimental: as §1, §2, §3
# MRC-5 cells = experiment: as above; type: cell-based; details: Homo sapiens, MRC5, MRC-5, normoxia 21% oxygen, 3 h incubation
# Experimental: as §1, §2, §3
# SW480 cells = experiment: as above; type: cell-based; details: Homo sapiens, SW480, 3 h incubation
# Experimental: as §1, §2, §3
# SW620 cells = experiment: as above; type: cell-based; details: Homo sapiens, SW-620, SW620, 3 h incubation
# Experimental: as §1, §2, §3
# T47-D cells = experiment: as above; type: cell-based; details: Homo sapiens, T47D, 3 h incubation
# Experimental: as §1, §2, §3
# HeLa cells [2] = experiment: Flow cytometric assessment of apoptosis (Annexin-V/PI); type: cell-based, human
# Experimental: (§4) Evaluation of apoptotic and necrotic cell populations was achieved using the ApoTarget Annexin-V FITC Apoptosis kit (BioSource International, Inc.). Cells (2.0 × 10^5) were seeded into 25 cm^2 flasks and treated with either ADPM01 or ADPM06 at respective EC50 or 10-fold EC50 concentration levels for 3 h, followed by irradiation with red light at 16 J cm^−2, as described above. Subsequently, cells were incubated for 4 and 16 h, with floating and adherent cells being collected at each time point by centrifugation and then stained with Annexin-V and propidium iodide (PI) as per the manufacturer's instructions. The percentage of cells at different phases of cell death, namely nonapoptotic (Annexin-V^−/PI^−), early apoptotic (Annexin-V^+/PI^−), and necrotic or late-stage apoptotic (Annexin-V^+/PI^+), was quantified using a EPICS XL-MCL flow cytometer (Coulter) and analysed using System II software, with at least 5000 cells being analysed for each run.
# MRC5 cells = experiment: as above; type: cell-based, human
# Experimental: as §4
# [3] = design: method as in Gorman et al, 2004; details: ref Gorman et al, 2004, cited from earlier work; for strong absorbance band: formulated in CrEL/PBS
# [4] = 0 J cm^−2, read-out: EC50 (M) (dark)
# [5] = 8 J cm^−2, read-out: EC50 (M) (8 J cm^−2)
# [6] = 16 J cm^−2, read-out: EC50 (M) (16 J cm^−2)
# [7] = 10-fold EC50 concentration, 16 h post-irradiation
# [8] = EC50 concentration, 4 h post-irradiation
# [9] = MRC5, 10-fold EC50 concentration, 16 h post-irradiation
# [10] = MRC5, EC50 concentration, 4 h post-irradiation
compound,measurement,setting,value
F[B-]1(F)n2c(-c3ccccc3)cc(-c3ccccc3)c2N=C2C(c3ccccc3)=CC(c3ccccc3)=[N+]21 [ADPM01],EC50,A2780 cells; [4],> 0.0001 M
same,EC50,A2780 cells; [5],5.1e-06 M
same,EC50,A2780 cells; [6],4.5e-06 M
same,EC50,A2780cp70 cells; [4],> 0.0001 M
same,EC50,A2780cp70 cells; [5],6.8e-06 M
same,EC50,A2780cp70 cells; [6],2.8e-06 M
same,EC50,HT-1080 cells; [4],> 0.0001 M
same,EC50,HT-1080 cells; [5],3.4e-05 M
same,EC50,HT-1080 cells; [6],2.2e-05 M
same,EC50,HeLa cells [1]; [4],2.7e-05 M
same,EC50,HeLa cells [1]; [5],2.8e-06 M
same,EC50,HeLa cells [1]; [6],9.2e-07 M
same,EC50,MCF-7 cells; [4],> 0.0001 M
same,EC50,MCF-7 cells; [5],3.4e-06 M
same,EC50,MCF-7 cells; [6],1.9e-06 M
same,EC50,MDA-MB-231 cells; [4],1.2e-05 M
same,EC50,MDA-MB-231 cells; [5],5.6e-06 M
same,EC50,MDA-MB-231 cells; [6],2.6e-07 M
same,EC50,MRC-5 cells; [4],> 0.0001 M
same,EC50,MRC-5 cells; [5],3.1e-06 M
same,EC50,MRC-5 cells; [6],5e-07 M
same,EC50,SW480 cells; [4],> 0.0001 M
same,EC50,SW480 cells; [5],7.6e-06 M
same,EC50,SW480 cells; [6],8e-07 M
same,EC50,SW620 cells; [4],> 0.0001 M
same,EC50,SW620 cells; [5],5.6e-06 M
same,EC50,SW620 cells; [6],2.8e-06 M
same,EC50,T47-D cells; [4],> 0.0001 M
same,EC50,T47-D cells; [5],5.6e-06 M
same,EC50,T47-D cells; [6],5.3e-06 M
same,"cells in lower left quadrant (Annexin-V−/PI−, nonapoptotic)",HeLa cells [2]; [7],42.5%
same,"cells in lower right quadrant (Annexin-V+/PI−, early apoptotic)",HeLa cells [2]; [7],16.5%
same,"cells in upper left quadrant (PI+, Annexin-V−)",HeLa cells [2]; [7],1.0%
same,"cells in upper right quadrant (Annexin-V+/PI+, necrotic or late-stage apoptotic)",HeLa cells [2]; [7],40.0%
same,"cells in lower left quadrant (Annexin-V−/PI−, nonapoptotic)",HeLa cells [2]; [8],95.3%
same,"cells in lower right quadrant (Annexin-V+/PI−, early apoptotic)",HeLa cells [2]; [8],4.40%
same,"cells in upper left quadrant (PI+, Annexin-V−)",HeLa cells [2]; [8],0.16%
same,"cells in upper right quadrant (Annexin-V+/PI+, necrotic or late-stage apoptotic)",HeLa cells [2]; [8],0.12%
same,"cells in lower left quadrant (Annexin-V−/PI−, nonapoptotic)",MRC5 cells; [9],26.9%
same,"cells in lower right quadrant (Annexin-V+/PI−, early apoptotic)",MRC5 cells; [9],31.8%
same,"cells in upper left quadrant (PI+, Annexin-V−)",MRC5 cells; [9],0.5%
same,"cells in upper right quadrant (Annexin-V+/PI+, necrotic or late-stage apoptotic)",MRC5 cells; [9],40.8%
same,"cells in lower left quadrant (Annexin-V−/PI−, nonapoptotic)",MRC5 cells; [10],94.1%
same,"cells in lower right quadrant (Annexin-V+/PI−, early apoptotic)",MRC5 cells; [10],3.82%
same,"cells in upper left quadrant (PI+, Annexin-V−)",MRC5 cells; [10],0.84%
same,"cells in upper right quadrant (Annexin-V+/PI+, necrotic or late-stage apoptotic)",MRC5 cells; [10],1.28%
same,strong absorbance band,[3],658 nm
same,fluorescence quantum yield (Φf),[3],0.34
COc1ccc(C2=[N+]3C(=Nc4c(-c5ccccc5)c(Br)c(-c5ccc(OC)cc5)n4[B-]3(F)F)C(c3ccccc3)=C2Br)cc1 [ADPM06],EC50,A2780 cells; [5],1e-07 M
same,EC50,A2780 cells; [6],3.5e-08 M
same,EC50,A2780cp70 cells; [5],6.2e-08 M
same,EC50,A2780cp70 cells; [6],2.7e-08 M
same,EC50,HT-1080 cells; [5],7.9e-08 M
same,EC50,HT-1080 cells; [6],3.7e-08 M
same,EC50,HeLa cells [1]; [4],> 0.0001 M
same,EC50,HeLa cells [1]; [5],6.3e-08 M
same,EC50,HeLa cells [1]; [6],4.1e-08 M
same,EC50,MCF-7 cells; [5],1.2e-07 M
same,EC50,MCF-7 cells; [6],7.5e-08 M
same,EC50,MDA-MB-231 cells; [5],1.4e-07 M
same,EC50,MDA-MB-231 cells; [6],7.5e-08 M
same,EC50,MRC-5 cells; [4],> 0.0001 M
same,EC50,MRC-5 cells; [5],3.7e-08 M
same,EC50,MRC-5 cells; [6],1.4e-08 M
same,EC50,SW480 cells; [5],5.4e-06 M
same,EC50,SW480 cells; [6],4.2e-08 M
same,EC50,SW620 cells; [5],7.5e-08 M
same,EC50,SW620 cells; [6],6e-08 M
same,EC50,T47-D cells; [5],1.6e-06 M
same,EC50,T47-D cells; [6],6.3e-07 M
same,"cells in lower left quadrant (Annexin-V−/PI−, nonapoptotic)",HeLa cells [2]; [7],42.3%
same,"cells in lower right quadrant (Annexin-V+/PI−, early apoptotic)",HeLa cells [2]; [7],34.1%
same,"cells in upper left quadrant (PI+, Annexin-V−)",HeLa cells [2]; [7],0.6%
same,"cells in upper right quadrant (Annexin-V+/PI+, necrotic or late-stage apoptotic)",HeLa cells [2]; [7],23.0%
same,"cells in lower left quadrant (Annexin-V−/PI−, nonapoptotic)",HeLa cells [2]; [8],95.6%
same,"cells in lower right quadrant (Annexin-V+/PI−, early apoptotic)",HeLa cells [2]; [8],3.88%
same,"cells in upper left quadrant (PI+, Annexin-V−)",HeLa cells [2]; [8],0.20%
same,"cells in upper right quadrant (Annexin-V+/PI+, necrotic or late-stage apoptotic)",HeLa cells [2]; [8],0.30%
same,"cells in lower left quadrant (Annexin-V−/PI−, nonapoptotic)",MRC5 cells; [9],28.6%
same,"cells in lower right quadrant (Annexin-V+/PI−, early apoptotic)",MRC5 cells; [9],45.4%
same,"cells in upper left quadrant (PI+, Annexin-V−)",MRC5 cells; [9],0.7%
same,"cells in upper right quadrant (Annexin-V+/PI+, necrotic or late-stage apoptotic)",MRC5 cells; [9],25.3%
same,"cells in lower left quadrant (Annexin-V−/PI−, nonapoptotic)",MRC5 cells; [10],95.9%
same,"cells in lower right quadrant (Annexin-V+/PI−, early apoptotic)",MRC5 cells; [10],2.84%
same,"cells in upper left quadrant (PI+, Annexin-V−)",MRC5 cells; [10],0.38%
same,"cells in upper right quadrant (Annexin-V+/PI+, necrotic or late-stage apoptotic)",MRC5 cells; [10],0.88%
same,strong absorbance band,[3],683 nm
same,fluorescence quantum yield (Φf),[3],0.1
